Source: patent US11596622B2, “Mazindol treatment for heroin dependence and substance use disorder” (NLS Pharmaceutics AG, priority 2017, dated 2023)

How the values were obtained:
5-HT1A(h) = target: T1, 5-HT1A(h) (Homo sapiens, UniProt P08908); assay: Radioligand binding, 5-HT1A (Eurofins CEREP); settings: 1.0 × 10^−05 M; agonist radioligand; read-out: percent inhibition of the binding of a radioactively labeled ligand
T1 construct: Eurofins CEREP
T1 sequence (P08908 1-422): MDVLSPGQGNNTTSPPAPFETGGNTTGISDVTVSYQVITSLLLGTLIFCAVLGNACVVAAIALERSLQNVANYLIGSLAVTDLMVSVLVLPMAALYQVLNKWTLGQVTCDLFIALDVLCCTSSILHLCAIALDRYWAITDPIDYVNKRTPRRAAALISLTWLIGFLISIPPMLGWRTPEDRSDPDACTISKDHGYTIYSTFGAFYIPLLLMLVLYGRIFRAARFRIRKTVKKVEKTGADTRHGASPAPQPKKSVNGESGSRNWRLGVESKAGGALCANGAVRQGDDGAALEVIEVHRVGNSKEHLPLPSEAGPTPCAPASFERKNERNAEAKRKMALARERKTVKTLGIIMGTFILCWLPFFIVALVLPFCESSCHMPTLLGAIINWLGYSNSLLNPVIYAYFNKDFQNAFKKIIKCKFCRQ
From the text: (§1) Table A discloses mazindol and Met tested at […] and the compound binding calculated as a percent inhibition of the binding of a radioactively labeled ligand specific for each target (Eurofins CEREP, France).
An inhibition or stimulation of more than 50% is considered a significant effect of the test compounds. Fifty percent is a common cut-off for further investigation (i.e. determination of IC50 or EC50 values from concentration-response curves).
(§2) The results are expressed as a percent of control specific binding obtained in the presence of the test compounds:
(§3) [formula] and as a percent inhibition of control specific binding obtained in the presence of the test compounds: […]

5-HT7(h) = target: T2, 5-HT7(h) (Homo sapiens, UniProt P34969); assay: Radioligand binding, 5-HT7 (Eurofins CEREP); settings: 1.0 × 10^−05 M; agonist radioligand; read-out: percent inhibition of the binding of a radioactively labeled ligand
T2 construct: Eurofins CEREP
T2 sequence (P34969 whole entry): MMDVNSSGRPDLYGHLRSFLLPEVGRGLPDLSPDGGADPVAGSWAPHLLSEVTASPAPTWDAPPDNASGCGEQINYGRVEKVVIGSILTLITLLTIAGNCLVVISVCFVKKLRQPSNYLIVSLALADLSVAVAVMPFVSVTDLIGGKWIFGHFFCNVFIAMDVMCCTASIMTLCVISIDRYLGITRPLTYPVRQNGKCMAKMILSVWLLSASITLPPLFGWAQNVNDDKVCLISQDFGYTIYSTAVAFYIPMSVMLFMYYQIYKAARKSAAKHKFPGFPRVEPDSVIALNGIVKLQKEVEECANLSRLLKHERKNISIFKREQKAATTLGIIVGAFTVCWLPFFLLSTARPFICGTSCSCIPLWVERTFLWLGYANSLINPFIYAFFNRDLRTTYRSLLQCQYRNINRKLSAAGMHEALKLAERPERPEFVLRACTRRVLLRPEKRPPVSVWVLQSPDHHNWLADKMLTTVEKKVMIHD
From the text: as §1
(§4) An inhibition or stimulation of more than 50% is considered a significant effect of the test compounds. Fifty percent is a common cut-off for further investigation (i.e. determination of IC50 or EC50 values from concentration-response curves). Tables B and C display the binding profiles for Mazindol and Met.
as §2, §3

[1] = target: T3, Norepinephrine transporter (h) (Homo sapiens, UniProt P23975); assay: Radioligand binding, norepinephrine transporter (Eurofins CEREP); settings: 1.0 × 10^−05 M; antagonist radioligand; read-out: percent inhibition of the binding of a radioactively labeled ligand
T3 construct: Eurofins CEREP
T3 sequence (P23975 whole entry): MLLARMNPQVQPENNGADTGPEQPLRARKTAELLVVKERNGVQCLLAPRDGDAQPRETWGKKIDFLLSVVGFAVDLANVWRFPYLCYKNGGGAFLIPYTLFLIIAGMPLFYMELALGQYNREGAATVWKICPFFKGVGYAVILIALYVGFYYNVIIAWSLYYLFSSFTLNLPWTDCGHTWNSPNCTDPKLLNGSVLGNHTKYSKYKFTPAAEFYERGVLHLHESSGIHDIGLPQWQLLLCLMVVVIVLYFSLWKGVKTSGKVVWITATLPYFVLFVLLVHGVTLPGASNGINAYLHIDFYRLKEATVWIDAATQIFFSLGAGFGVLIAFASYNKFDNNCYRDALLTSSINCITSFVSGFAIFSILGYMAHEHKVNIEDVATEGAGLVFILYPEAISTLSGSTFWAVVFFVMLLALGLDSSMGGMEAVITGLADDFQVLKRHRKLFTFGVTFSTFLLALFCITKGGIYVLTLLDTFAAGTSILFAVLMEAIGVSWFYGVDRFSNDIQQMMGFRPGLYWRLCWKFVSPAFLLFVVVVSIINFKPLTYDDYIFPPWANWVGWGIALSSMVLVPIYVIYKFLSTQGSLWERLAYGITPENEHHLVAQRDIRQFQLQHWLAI
From the text: as §1, §4, §2, §3

C57BL/6J mice = assay: Conditioned place preference induced by the drug itself; assay type: in vivo
From the text: Conditioned place preference (CPP) is a widely used procedure for studying the potential addictive effect of drugs. CPP is based upon the tendency of rodents to approach a stimulus that has previously been paired with an incentive state induced by a drug. A drug that induces a CPP may be suspected to present reinforcing effects that could lead to addiction. Numerous addictive drugs, such as opiate agonists or stimulants induce a CPP and a behavioral sensitization.
The effect of mazindol on place preference was examined in C57BL/6J mice using a method similar to the one used by Schlussman et al. (9).
The second experiment consisted in determining the optimal dose of heroin which induces the most significant CPP. For this purpose, the CPP induced by heroin at 1.25, 2.5 and 5 mg/kg was examined.
Following the habituation session (on day 1), animals (N=72) were pseudo-randomly assigned to two groups, a Control group (N=12) and a Heroin group (N=60), in a way that there was no significant difference between the two groups for the total distance travelled in the apparatus and for the percentage of time spent and the percentage distance travelled in the grey compartment and in the striped compartment.
Animals received the following treatments immediately before drug sessions: • Control group: vehicle • Heroin group: heroin (1.25 mg/kg)
Following the habituation session (on day 1), animals (N=72) were pseudo-randomly assigned to three groups, a Control group (N=12), a Heroin group (N=48) and a Mazindol group (N=12), in a way that there was no significant difference between the three groups for the total distance travelled in the apparatus and for the percentage of time spent and the percentage distance travelled in the grey compartment and in the striped compartment.
Animals received the following treatments before drug sessions: • Control group: vehicle, i.p. immediately before session. • Heroin group: heroin (1.25 mg/kg), i.p. immediately before session. • MAZ 2 group: mazindol (2 mg/kg), i.p. 60 min before session.
Animals received the following treatments before preference session: • Control group: vehicle of mazindol, i.p. 60 min before testing. • Hero group: vehicle of mazindol, i.p. 60 min before testing. • Hero-Mz 1 group: mazindol (1 mg/kg), i.p. 60 min before testing. • Hero-Mz 2 group: mazindol (2 mg/kg), i.p. 60 min before testing. • Hero-A 1 group: D-amphetamine (1 mg/kg), i.p. 30 min before testing. • MAZ 2 group: vehicle of mazindol, i.p. 60 min before testing.

[2] = test system: cocaine abuse and dependence; settings: studies (7, 8); vs. placebo; cited from earlier work
[3] = animal toxicology studies; cited from earlier work
[4] = cited from earlier work
[5] = MAZ 2: mazindol 2 mg/kg i.p. 60 min before drug sessions, vehicle before preference session, day 12, mean

## OC1(c2ccc(Cl)cc2)c2ccccc2C2=NCCN21 (stereo not shown) [Mazindol, 5-(4-chlorophenyl)-2,5-dihydro-3 H-imadazo[2,1-a]isoindol-5-ol]
5-HT1A(h)
  inhibition at 10 µM: 89.5%
5-HT7(h)
  inhibition at 10 µM: 52.9%
[1]
  inhibition at 10 µM: 100%
C57BL/6J mice; [5]
  Distance travelled in the drug-paired compartment: 9013.0 cm
  Distance travelled in the two compartments (Drug + Vehicle): 14858.2 cm
  Distance travelled in the vehicle-paired compartment: 5845.2 cm
  Distance travelled, drug-paired minus vehicle-paired compartment: 3167.8 cm
  Time spent in the drug-paired compartment: 1077.3 s
  Time spent in the vehicle-paired compartment: 722.7 s
  Time spent, drug-paired minus vehicle-paired compartment: 354.6 s
C57BL/6J mice; mazindol 2 mg/kg i.p. before drug sessions
  place preference induced by the drug: induced a place preference
[2]
  efficacy in treating cocaine abuse and dependence: ineffective
[3]
  carcinogenic effect: no carcinogenic effect
  mutagenic effect: no mutagenic effect
  toxic potential: very low
  toxicology effect in reproduction: no toxicology effect in reproduction
[4]; between 1 mg/day and 4 mg/day, immediate release formulations
  linearity of pharmacokinetics: linear (independent of the dose)
[4]; immediate release formulation, healthy volunteers (Kim 2009)
  half-life time: 9.1 ± 1.7 h
[4]; single or repeated oral administration, U.S. Pat. No. 8,293,779
  time to maximum concentrations (Tmax): 2 to 4 h
